Measured values from paper PMC10975719, “Tobramycin Reduces Pulmonary Toxicity of Polymyxin B via Inhibiting the Megalin-Mediated Drug Uptake in the Human Lung Epithelial Cells” (Pharmaceutics, 2024).
Read-outs that look alike come from different tables or passages of the source. Values belong to the molecule of their own block, whether it stands above or below them. Bridge positions count the residues as written; N and C are the ends. Square brackets hold non-standard residues; d marks the D form. Peptide text beside a SMILES is read from it. * marks the point of attachment. X1 = CC[C@H](C)CCCCC(=O)*; Dab = NCC[C@H](N)C(=O)O

What was measured:
Calu-3 cell monolayer [1] = test: Transport study in air liquid interface Calu-3 cell monolayer; details: LC-MS/MS; for transport rate, apparent permeability coefficient (Papp), in combination compared to drug alone / amount remaining in the apical chamber, combination compared to drug alone / transport from apical chamber to basal medium: Calu-3 ALI monolayer; for transport rate, apparent permeability coefficient (Papp), in combination compared to drug alone: apical to basal, polymyxin B 30 mg/L + tobramycin 70 mg/L vs each alone, p < 0.0001; for transport rate, apparent permeability coefficient (Papp), in combination compared to drug alone / transport from apical chamber to basal medium / accumulation in Calu-3 cell monolayer: HBSS; for amount remaining in the apical chamber, combination compared to drug alone: after 4 h of transport study; for transport from apical chamber to basal medium: 4 h; for accumulation in Calu-3 cell monolayer: at 4 h
Experimental: Human lung epithelial Calu-3 cells were grown in a 6.5 mm cell culture insert in a trans-well plate for 3 days using both apical and basal media. The apical media was withdrawn to let the cells grow in an air liquid interface (ALI). The system was maintained for 14 days, with the basal media changed every other day. The culture medium was DMEM/F-12 supplemented with 10% (v/v, FBS) and 1% (v/v) nonessential amino acid, and penicillin and streptomycin (100 units/mL of penicillin and 100 mg/L of streptomycin). After 14 days of differentiation at the ALI condition, the trans-epithelial electrical resistance (TEER) value was measured to investigate the integrity of the formed Calu-3 monolayer.
The transport study was conducted in the Calu-3 cell monolayer according to our previously published ALI culture protocol. TEER values were measured before and after the transport study to ensure the cell monolayer integrity was maintained. As the transport process was done in HBSS buffer, the drug solution was also prepared in HBSS buffer. The cell monolayer inserts were incubated with HBSS buffer for 30 min to equilibrate. The following drug solutions were used in the transport process: polymyxin B 30 mg/L, tobramycin 70 mg/L, and the combination of polymyxin B 30 mg/L and tobramycin 70 mg/L. An aliquot of 200 µL of drug solution was added to the apical chamber and 600 µL of HBSS buffer was added to the basal chamber. The samples were collected from the basal chamber every hour for a total of 4 h and the basal chamber was refilled with fresh HBSS buffer. Transported drug from the basal chamber, remaining drug from the apical chamber, and drug accumulated in the cell monolayer were extracted and analyzed using a reversed-phase LC/MS system. Drug extraction and LC/MS analysis was performed according to a previously published protocol.
For the transported samples, all buffer in the basal chamber was collected to a centrifuge tube. Colistin (1 mg/L) was added as the internal standard, and formic acid (0.1%, v/v) was added to each sample. For drug analysis in the cell, the insert was cut using a sharp scalpel. The cells in the membrane were lysed overnight with RIPA buffer and 200 µL of each sample was used to extract the drug using a protein precipitation method. Acetonitrile (400 µL) was added to the cell lysate and vortexed well to precipitate all the protein. Internal standard and formic acid were added to the samples as previously described, vortexed well, and centrifuged before transferring the supernatant into the injection vial.
The drugs were analyzed using an LC-MS/MS equipped with a C18 column (2.6 μm, 50 mm × 3 mm), a liquid chromatography system (Agilent 1200, Santa Clara, CA, USA), and a triple quadrupole mass spectrometer (Agilent 6460 QQQ, Santa Clara, CA, USA) with an electrospray ionization source. The mobile phase was 0.1% formic acid solution in water (90%) and 0.1% formic acid solution in acetonitrile (10%) with a flow rate of 0.6 mL/min. A gradient elution procedure was used, and each component was measured via multiple reaction monitoring (MRM) in the positive ionization mode (Table 1).

Calu-3 cell monolayer [2] = test: Transport in Calu-3 cell monolayer in presence of megalin inhibitor sodium maleate; type: in vitro ADME, human; details: for cellular accumulation / remaining in the apical chamber / intracellular accumulation normalized to protein: 2 h; for intracellular accumulation normalized to protein: Calu-3 monolayer lysate (RIPA)
Experimental: The transport behavior of polymyxin B and tobramycin in the Calu-3 cell monolayer were also evaluated in the presence of 8 mg/mL of sodium maleate, an agent known to inhibit megalin receptors via shedding of the megalin protein [23]. Calu-3 cell monolayer in trans-well inserts was formed following our previously published ALI culture protocol. Cell monolayers were pre-incubated with 8 mg/mL of sodium maleate for 4 h and were subsequently incubated with polymyxin B and tobramycin for 2 h. Samples were collected from the apical and basal chambers of the ALI culture system, analyzed using an LC-MS/MS system, and the drug content was calculated. The cell monolayer was then lysed with lysis buffer (RIPA buffer, Catalogue 89900, Thermofisher Scientific, Waltham, MA, USA) and cellular drug content was measured. Cell lysate (25 µL) from each sample was used for protein measurement. The amount of drug accumulated in the cell was normalized according to the amount of protein present in the samples. Polymyxin B and tobramycin concentrations in the samples, in the presence and absence of the megalin inhibitor sodium maleate, were plotted and statistical significance was calculated using Graph Pad Prism (version 9).

megalin = target: T1, megalin (Homo sapiens, UniProt P98164); test: Megalin substrate FITC-BSA uptake by Calu-3 cells, confocal microscopy; type: cell-based; details: 4 h; for ratio of FITC-BSA to nucleus integrated density: 100 mg/L FITC-BSA, Calu-3 cells, FITC-BSA only 0.58 ± 0.04; for effect on cellular uptake of FITC-BSA: polymyxin B 30 and 60 mg/L, tobramycin 70 and 140 mg/L
T1 construct: endogenous in cells; host or cells: Calu-3 (human lung epithelial cells)
Experimental: As albumin is an endogenous substrate of megalin [30], cellular distribution of fluorescein-labeled BSA (FITC-BSA) was evaluated in the presence of polymyxin B and tobramycin to investigate the functional activity of megalin in Calu-3 cells. Calu-3 cells were grown in an eight-well chamber slide at a density of 2 × 10^5 cell/mL in 10% FBS supplemented DMEM/F-12 cell culture media. After overnight incubation at 37 °C and 5% CO2, cells were washed to remove old media and were incubated for 4 h with 100 μg/mL of FITC-BSA in fresh cell culture media and in the presence and absence of polymyxin B (30 and 60 mg/L) and tobramycin (70 and 140 mg/L). After 4 h, cells were washed and stained with Hoechst for nucleus staining and cell mask deep red for cell membrane staining. Cells were finally washed and covered with Prolong gold antifade mounting reagent and mounted on a 60× oil immersion objective for imaging. Images were taken with a Nikon Eclipse T1 confocal microscope. Images were processed with Nikon (NIS-Elements) and Image J (version 1.54) software.

Calu-3 cells = test: Cellular uptake of polymyxin B by confocal microscopy (anti-polymyxin B antibody, Alexa 647); type: cell-based, human; details: 4 h
Experimental: Polymyxin B distribution in the Calu-3 cell monolayer was investigated using confocal laser scanning microscopy (CLSM). At the end of the transport process, the Calu-3 cell monolayer was prepared for imaging. The cell monolayer was washed with phosphate-buffered saline after treatment and fixed with 4% paraformaldehyde for 15 min. The cell monolayer was then permeabilized with 0.1% triton X-100 for 10 min and blocked with 3% goat serum in 0.1% triton X-100 for 2 h. To stain intracellular polymyxin B, the cell monolayer was then incubated overnight with mouse anti-polymyxin B antibody at 4 °C in the dark. After overnight incubation, the cell monolayer was incubated with goat anti-mouse IgG conjugated with Alexa Flour™ 647 for 2 h at room temperature. The nuclei were stained with Hoechst 33342.
For the drug accumulation study, Calu-3 cells were cultured in a glass bottom 35 mm dish (Ashland, MA, USA) and were incubated with 30 mg/L polymyxin B in the absence and presence of 70 mg/L tobramycin for 4 h. […] For the drug accumulation study, the background subtracted integrated density of Alexa Flour 647 (for polymyxin B) was calculated and data were presented as mean polymyxin B intensity per cell. Cell numbers per imaging field were counted using the Hoechst 33342 intensity and ImageJ “cell counter” Macro (ImageJ version 2.9).

[3] = system: human lung epithelial Calu-3 cells; type: cell-based
Experimental: Assessment of cytotoxicity was performed using aqueous solutions of polymyxin B, tobramycin, and the combination of both in human lung epithelial Calu-3 cells. This cytotoxicity assessment aimed to determine safe drug concentrations for the transport and imaging experiments. Cells were seeded in 96-well flat bottom plate (Corning, NY, USA) at a density of 2 × 10^5 cells/mL. A wide concentration range was chosen, considering a molar ratio of 1:5 polymyxin B to tobramycin based on the literature. Lactate dehydrogenase (LDH) assay was used for the measurement of cytotoxicity. Vehicle-treated cells were considered as the negative control, while 10× lysis buffer treated cells were employed as the positive control. For the imaging study, Calu-3 cells were cultured in a 35 mm glass bottom culture dish at a density of 2 × 10^5 cells/mL and were treated with a vehicle, tobramycin 700 mg/L, polymyxin B 300 mg/L, and the combination. After treatment, cells were washed with PBS and stained with PI (100 ng/mL) and DAPI (1 mg/L) for 30 min in dark. Cells were washed again with PBS and mounted for imaging with Calu-3 cell culture media.

renal cortex = details: 400 mg/kg of sodium maleate administration, within 3 h after injection; cited from earlier work
[4] = combination (polymyxin B 30 mg/L + tobramycin 70 mg/L), p < 0.0001 vs alone
[5] = drug alone (polymyxin B 30 mg/L or tobramycin 70 mg/L), cell lysate RIPA
[6] = drug alone, without sodium maleate, Calu-3 ALI monolayer, LC-MS/MS
[7] = with sodium maleate 8 mg/mL (4 h pre-incubation), Calu-3 ALI monolayer, LC-MS/MS

T1 sequence (P98164 26-4655): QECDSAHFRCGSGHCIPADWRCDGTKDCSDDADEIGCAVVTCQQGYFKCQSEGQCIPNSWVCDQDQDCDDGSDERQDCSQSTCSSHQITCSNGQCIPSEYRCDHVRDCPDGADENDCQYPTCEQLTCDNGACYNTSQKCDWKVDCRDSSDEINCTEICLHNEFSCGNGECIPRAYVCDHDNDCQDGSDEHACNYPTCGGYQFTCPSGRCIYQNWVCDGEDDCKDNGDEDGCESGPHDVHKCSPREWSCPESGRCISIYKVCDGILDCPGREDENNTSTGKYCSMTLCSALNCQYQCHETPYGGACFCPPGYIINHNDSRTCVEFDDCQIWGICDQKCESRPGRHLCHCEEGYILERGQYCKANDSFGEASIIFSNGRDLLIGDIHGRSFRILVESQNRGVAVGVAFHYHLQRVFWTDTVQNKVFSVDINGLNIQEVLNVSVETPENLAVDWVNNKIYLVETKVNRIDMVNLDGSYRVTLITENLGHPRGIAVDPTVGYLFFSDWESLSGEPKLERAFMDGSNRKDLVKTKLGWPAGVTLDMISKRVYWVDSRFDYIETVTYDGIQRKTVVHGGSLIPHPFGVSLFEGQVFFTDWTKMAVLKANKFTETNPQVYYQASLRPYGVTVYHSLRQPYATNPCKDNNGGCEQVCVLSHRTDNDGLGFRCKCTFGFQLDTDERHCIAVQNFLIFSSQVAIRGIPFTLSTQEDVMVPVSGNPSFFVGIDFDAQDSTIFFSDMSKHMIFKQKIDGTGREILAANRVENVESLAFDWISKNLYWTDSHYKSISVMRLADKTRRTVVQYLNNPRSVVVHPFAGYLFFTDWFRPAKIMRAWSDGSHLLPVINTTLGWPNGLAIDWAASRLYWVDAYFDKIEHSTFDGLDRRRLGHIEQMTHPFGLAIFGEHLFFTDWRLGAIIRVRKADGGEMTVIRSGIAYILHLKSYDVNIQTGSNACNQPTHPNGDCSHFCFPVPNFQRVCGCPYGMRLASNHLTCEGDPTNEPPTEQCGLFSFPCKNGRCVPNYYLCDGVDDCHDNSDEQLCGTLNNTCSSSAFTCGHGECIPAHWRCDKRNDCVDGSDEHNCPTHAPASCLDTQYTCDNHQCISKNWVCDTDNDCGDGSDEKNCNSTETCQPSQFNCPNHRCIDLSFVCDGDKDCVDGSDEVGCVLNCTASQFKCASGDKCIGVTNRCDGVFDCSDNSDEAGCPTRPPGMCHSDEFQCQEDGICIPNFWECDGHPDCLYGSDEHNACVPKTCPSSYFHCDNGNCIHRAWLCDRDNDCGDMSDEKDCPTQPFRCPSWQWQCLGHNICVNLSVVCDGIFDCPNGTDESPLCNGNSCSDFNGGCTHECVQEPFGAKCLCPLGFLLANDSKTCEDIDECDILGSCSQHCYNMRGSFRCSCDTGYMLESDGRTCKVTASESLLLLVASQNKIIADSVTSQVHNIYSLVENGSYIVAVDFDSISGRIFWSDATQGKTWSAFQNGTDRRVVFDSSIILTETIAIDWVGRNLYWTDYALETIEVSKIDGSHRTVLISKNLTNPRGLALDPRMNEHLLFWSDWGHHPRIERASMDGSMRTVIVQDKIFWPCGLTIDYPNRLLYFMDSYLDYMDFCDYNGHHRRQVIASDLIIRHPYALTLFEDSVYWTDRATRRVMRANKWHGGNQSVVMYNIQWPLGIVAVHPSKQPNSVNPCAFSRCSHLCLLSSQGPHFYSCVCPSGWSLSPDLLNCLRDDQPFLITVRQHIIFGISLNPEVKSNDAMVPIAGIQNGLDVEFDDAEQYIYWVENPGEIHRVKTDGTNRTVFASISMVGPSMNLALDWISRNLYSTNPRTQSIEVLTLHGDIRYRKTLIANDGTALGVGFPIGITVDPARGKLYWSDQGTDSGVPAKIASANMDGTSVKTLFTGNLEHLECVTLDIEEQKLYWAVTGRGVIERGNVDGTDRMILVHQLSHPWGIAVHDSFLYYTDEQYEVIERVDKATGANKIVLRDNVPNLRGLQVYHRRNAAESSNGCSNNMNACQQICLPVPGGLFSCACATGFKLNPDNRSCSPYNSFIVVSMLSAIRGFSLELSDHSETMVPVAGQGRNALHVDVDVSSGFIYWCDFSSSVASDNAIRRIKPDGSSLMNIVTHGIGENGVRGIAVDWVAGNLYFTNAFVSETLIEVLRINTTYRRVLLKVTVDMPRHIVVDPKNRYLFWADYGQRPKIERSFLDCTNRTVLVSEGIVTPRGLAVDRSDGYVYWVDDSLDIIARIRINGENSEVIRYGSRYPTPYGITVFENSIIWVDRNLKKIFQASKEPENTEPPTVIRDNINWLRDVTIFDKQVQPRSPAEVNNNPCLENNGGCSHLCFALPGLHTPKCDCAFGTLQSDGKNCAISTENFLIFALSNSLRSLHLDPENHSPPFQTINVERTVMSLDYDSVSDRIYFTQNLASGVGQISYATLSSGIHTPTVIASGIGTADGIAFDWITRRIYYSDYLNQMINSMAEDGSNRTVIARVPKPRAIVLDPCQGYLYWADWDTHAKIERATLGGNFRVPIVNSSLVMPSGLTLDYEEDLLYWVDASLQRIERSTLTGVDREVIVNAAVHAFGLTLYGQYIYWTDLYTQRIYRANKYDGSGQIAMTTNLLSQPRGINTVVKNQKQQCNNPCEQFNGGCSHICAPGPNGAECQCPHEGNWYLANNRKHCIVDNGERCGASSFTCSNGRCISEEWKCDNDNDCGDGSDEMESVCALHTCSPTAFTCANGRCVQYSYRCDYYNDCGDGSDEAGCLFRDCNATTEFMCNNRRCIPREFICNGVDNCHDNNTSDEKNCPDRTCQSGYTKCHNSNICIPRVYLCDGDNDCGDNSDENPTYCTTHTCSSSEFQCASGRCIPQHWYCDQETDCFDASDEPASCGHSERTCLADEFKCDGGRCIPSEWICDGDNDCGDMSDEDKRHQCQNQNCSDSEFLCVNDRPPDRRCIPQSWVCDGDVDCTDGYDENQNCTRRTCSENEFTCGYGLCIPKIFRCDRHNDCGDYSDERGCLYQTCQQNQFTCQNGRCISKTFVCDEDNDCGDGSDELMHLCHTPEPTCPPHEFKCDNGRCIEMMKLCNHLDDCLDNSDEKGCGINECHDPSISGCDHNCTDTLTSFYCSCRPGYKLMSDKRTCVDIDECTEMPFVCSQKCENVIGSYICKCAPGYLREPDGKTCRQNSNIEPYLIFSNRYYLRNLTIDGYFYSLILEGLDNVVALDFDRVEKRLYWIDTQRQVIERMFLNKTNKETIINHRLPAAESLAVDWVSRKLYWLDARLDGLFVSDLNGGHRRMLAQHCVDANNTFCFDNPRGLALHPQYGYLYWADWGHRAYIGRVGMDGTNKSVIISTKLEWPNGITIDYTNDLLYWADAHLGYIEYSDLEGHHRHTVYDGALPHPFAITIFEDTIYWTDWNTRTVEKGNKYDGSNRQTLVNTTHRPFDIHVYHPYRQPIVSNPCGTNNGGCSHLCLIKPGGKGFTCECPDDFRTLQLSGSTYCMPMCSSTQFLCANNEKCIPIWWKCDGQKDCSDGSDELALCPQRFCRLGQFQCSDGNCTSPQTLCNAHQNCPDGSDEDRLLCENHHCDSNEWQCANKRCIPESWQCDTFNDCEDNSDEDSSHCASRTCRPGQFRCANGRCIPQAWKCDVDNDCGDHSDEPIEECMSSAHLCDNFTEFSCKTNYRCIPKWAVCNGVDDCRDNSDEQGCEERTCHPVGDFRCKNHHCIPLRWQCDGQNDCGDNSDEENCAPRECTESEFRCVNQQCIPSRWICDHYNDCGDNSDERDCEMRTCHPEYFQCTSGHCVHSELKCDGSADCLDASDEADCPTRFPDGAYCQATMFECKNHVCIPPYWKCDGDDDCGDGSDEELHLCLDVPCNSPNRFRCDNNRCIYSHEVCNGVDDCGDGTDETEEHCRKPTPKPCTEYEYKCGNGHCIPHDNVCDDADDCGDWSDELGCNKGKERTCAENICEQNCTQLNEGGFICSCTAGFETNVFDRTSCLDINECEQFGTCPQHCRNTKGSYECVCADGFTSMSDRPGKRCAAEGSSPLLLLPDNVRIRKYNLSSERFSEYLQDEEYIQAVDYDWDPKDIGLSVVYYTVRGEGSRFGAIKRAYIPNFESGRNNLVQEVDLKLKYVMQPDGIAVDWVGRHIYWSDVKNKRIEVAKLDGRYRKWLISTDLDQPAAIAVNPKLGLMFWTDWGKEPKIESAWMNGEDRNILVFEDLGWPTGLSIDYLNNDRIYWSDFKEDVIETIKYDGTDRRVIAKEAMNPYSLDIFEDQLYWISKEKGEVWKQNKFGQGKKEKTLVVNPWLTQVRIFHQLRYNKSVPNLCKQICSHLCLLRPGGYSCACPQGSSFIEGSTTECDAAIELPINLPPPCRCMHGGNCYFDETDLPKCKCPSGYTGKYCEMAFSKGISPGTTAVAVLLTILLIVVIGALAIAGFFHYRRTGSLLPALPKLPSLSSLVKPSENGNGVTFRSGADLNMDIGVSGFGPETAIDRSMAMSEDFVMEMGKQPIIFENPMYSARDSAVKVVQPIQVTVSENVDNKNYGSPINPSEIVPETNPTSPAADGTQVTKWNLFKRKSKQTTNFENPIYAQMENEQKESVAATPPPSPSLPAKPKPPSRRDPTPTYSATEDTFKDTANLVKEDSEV

Compound: CC[C@H](C)CCCCC(=O)N[C@@H](CCN)C(=O)N[C@H](C(=O)N[C@@H](CCN)C(=O)N[C@H]1CCNC(=O)[C@H]([C@@H](C)O)NC(=O)[C@H](CCN)NC(=O)[C@H](CCN)NC(=O)[C@H](CC(C)C)NC(=O)[C@@H](Cc2ccccc2)NC(=O)[C@H](CCN)NC1=O)[C@@H](C)O [polymyxin B, Polymyxin B] (X1-[Dab]T[Dab][Dab][Dab][dF]L[Dab][Dab]T; lactam 4-C)
transport rate, apparent permeability coefficient (Papp), in combination compared to drug alone (Calu-3 cell monolayer [1]): decreased significantly
amount remaining in the apical chamber, combination compared to drug alone (Calu-3 cell monolayer [1]): Significantly higher amounts
transport from apical chamber to basal medium (Calu-3 cell monolayer [1]; [4]): 3.9 ± 0.3%
accumulation in Calu-3 cell monolayer (Calu-3 cell monolayer [1]; [4]): 6.4 ± 0.1%
accumulation in Calu-3 cell monolayer (Calu-3 cell monolayer [1]; [5]): 21.4 ± 2.0%
transport from apical chamber to basal medium (Calu-3 cell monolayer [1]; drug alone (polymyxin B 30 mg/L), 30 min equilibration): 7.1 ± 0.4%
cellular accumulation (Calu-3 cell monolayer [2]; [6]): 26.5 ± 2.1%
remaining in the apical chamber (Calu-3 cell monolayer [2]; [6]): 59.9 ± 1.2%
transported from the apical chamber to the basal chamber (Calu-3 cell monolayer [2]; drug alone, without sodium maleate, Calu-3 ALI monolayer, 2 h incubation, LC-MS/MS): 13.5 ± 1.6%
transported from the apical chamber to the basal chamber (Calu-3 cell monolayer [2]; in the presence of sodium maleate 8 mg/mL (4 h pre-incubation), Calu-3 ALI monolayer, 2 h incubation, LC-MS/MS): 8.2 ± 0.9%
cellular accumulation (Calu-3 cell monolayer [2]; [7]): 8.1 ± 0.4%
remaining in the apical chamber (Calu-3 cell monolayer [2]; [7]): 83.7 ± 1.3%
intracellular accumulation normalized to protein (Calu-3 cell monolayer [2]; with sodium maleate 8 mg/mL (4 h pre-incubation), LC-MS/MS): 1.9 ± 0.04 ng/µg of protein
intracellular accumulation normalized to protein (Calu-3 cell monolayer [2]; without sodium maleate, LC-MS/MS): 6.0 ± 0.8 ng/µg of protein
ratio of FITC-BSA to nucleus integrated density (megalin; 30 mg/L polymyxin B): 0.36 ± 0.03
ratio of FITC-BSA to nucleus integrated density (megalin; 60 mg/L polymyxin B): 0.29 ± 0.02
effect on cellular uptake of FITC-BSA (megalin): prevented the cellular uptake of FITC-BSA in a concentration-dependent manner
polymyxin B intensity per cell (Calu-3 cells; combination polymyxin B 30 mg/L + tobramycin 70 mg/L, mean ± SD, p < 0.001 vs polymyxin B alone): 932.3 ± 136.0
polymyxin B intensity per cell (Calu-3 cells; polymyxin B 30 mg/L alone, Alexa 647, mean ± SD, saline control 113.0 ± 13.6): 2259.3 ± 309.4
safety of concentrations chosen for the transport study ([3]; 30 mg/L polymyxin B alone, 70 mg/L tobramycin alone, and their combination, based on cell viability data): safe
cell death compared to the control ([3]; at 300 mg/L, LDH assay): significant cell death
PI intensity ([3]; polymyxin B 300 mg/L treated Calu-3 cells, mean ± SD (n = 3), p < 0.001 vs control): 4334.0 ± 1131.6

Compound: O=C([O-])/C=C\C(=O)[O-].[Na+].[Na+] [sodium maleate]
decrease of renal cortex accumulation of amikacin (renal cortex): 50%

transport rate, apparent permeability coefficient (Papp), in combination compared to drug alone (Calu-3 cell monolayer [1]): decreased significantly
amount remaining in the apical chamber, combination compared to drug alone (Calu-3 cell monolayer [1]): Significantly higher amounts
accumulation in Calu-3 cell monolayer (Calu-3 cell monolayer [1]; [4]): 3.8 ± 0.8%
accumulation in Calu-3 cell monolayer (Calu-3 cell monolayer [1]; [5]): 13.2 ± 4.3%
transported from the apical chamber to the basal chamber (Calu-3 cell monolayer [2]): 11.9 ± 1.3%
ratio of FITC-BSA to nucleus integrated density (megalin; 70 mg/L tobramycin): 0.41 ± 0.02
ratio of FITC-BSA to nucleus integrated density (megalin; 140 mg/L tobramycin): 0.30 ± 0.02
Compound: NC[C@H]1O[C@H](O[C@H]2[C@H](O)[C@@H](O[C@H]3O[C@H](CO)[C@@H](O)[C@H](N)[C@H]3O)[C@H](N)C[C@@H]2N)[C@H](N)C[C@@H]1O [tobramycin]
effect on cellular uptake of FITC-BSA (megalin): prevented the cellular uptake of FITC-BSA in a concentration-dependent manner
reduction in viability of Calu-3 cells compared to the control [3]: did not result in any reduction in the viability
